In patent publication US12521393B2, “Cytotoxicity targeting chimeras for CCR2-expressing cells” (GLAXOSMITHKLINE INTELLECTUAL PROPERTY DEVELOPMENT LIMITED, priority 2021, dated 2026):

Assays:
[1] = target: anti-cotinine antibody (SEQ ID NO: 11/12, rabbit variable region with human IgG1 Fc DE mutation); experiment: SPR binding of anti-cotinine antibody to ARM compounds, Biacore T200, 37° C. (Example 202); details: SPR Biacore T200, 37° C., pH 7.4, antibody SEQ ID NO: 11/12 captured on protein A; Kd in molar
Description: Anti-cotinine antibodies having a heavy chain sequence of SEQ ID NO: 11 and a light chain sequence of SEQ ID NO: 12 (rabbit variable region with human IgG1 Fc domain containing a DE mutation (S239D/1332E)) were captured on one or more flow cells of a protein A sensor chip (Cytiva) using a Biacore T200 while reserving flow cell 1 as a reference. Following capture, a 3000 second wait step was included to reduce drift during compound analysis. ARM compounds of Formula (I) were then injected at 100 μL/min with 200 and 2000 second association and dissociation times. The entire experiment was run at 37° C. with running buffer containing 10 mM HEPES pH 7.4, 150 mM NaCl, 0.005% P20 and 1% DMSO. ARM compounds of Formula (I) were titrated with a top concentration of 200 nM using a 3-fold 5-point dilution series and a corresponding 5-injection buffer cycle was run for blank subtraction. Data were double referenced by subtracting the response of the reference flow cell from that of the antibody-containing flow cell and subsequently subtracting the referenced blank sensorgrams. Following compound analysis, the surface was regenerated using a 30 second injection of pH 1.5 glycine at a flow rate of 30 μL/min after which antibody was re-captured. The experiment was run using Biacore T200 control software and evaluated using Biacore T200 Evaluation software. Curves were fit with a 1:1 kinetic binding model to obtain kon (1/Ms), koff(1/s), Kd (M) determined as koff/kon, and residence time determined as 1/koff (s).
Anti-cotinine antibody was tested for binding to ARMs compounds of Formula (I) of the invention in the above assay in or more experimental runs and the results are shown in Table 5 below. Affinity is reported as a pKd value. The pKd value is the negative log of the Kd value, wherein the Kd value is the dissociation constant measured in molar (M) as noted above. For compounds tested in more than one experimental run, the pKd value is reported as an average

[2] = test system: endogenous target monocytes in human PBMC; experiment: PBMC ex vivo monocyte depletion flow cytometry assay (Example 200); assay type: cell-based; details: with anti-cotinine antibody (SEQ ID NO: 11/12), 18-24 hours, EC50 in molar, read-out: Ex Vivo Depletion Assay pEC50 (converted)
Summary of the method: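 Monocyte depletion is reported as pEC50, averaged or given individually across runs, and read by flow cytometry staining CD45, CD14 and CD4 with a viability dye. Compounds, diluted four-fold over 11 points from 1 mM DMSO stocks, were combined with 30 μg/mL Fc-enhanced anti-cotinine antibody and human PBMC, then incubated 18-24 h at 37° C.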

For `CC(C)N(C)[C@@H]1CC[C@H](N2CC[C@H](Nc3ncnc4ccc(C(F)(F)F)cc34)C2=O)[C@H](NC(=O)[C@H]2C[C@@H](NC(=O)CCOCCOCCNC(=O)CNC(=O)[C@H]3CC(=O)N(C)[C@@H]3c3cccnc3)C2)C1` [Example 66, (2S,3S)-N-(2-((2-(2-(3-(((1S,3s)-3-(((1R,2S,5R)-5-(Isopropyl(methyl)amino)-2-((S)-2-oxo-3-((6-(trifluoromethyl)quinazolin-4-yl)amino)pyrrolidin-1-yl)cyclohexyl)carbamoyl)cyclobutyl)amino)-3-oxopropoxy)ethoxy)ethyl)amino)-2-oxoethyl)-1-methyl-5-oxo-2-(pyridin-3-yl)pyrrolidine-3-carboxamide], the “pKd of Antibody for ARM Compound of Formula (I)” value (“pKd of Antibody” below) [1] was 8.649 and the EC50 [2] was 0.631 nM.
With `CC(C)N(C)[C@@H]1CC[C@H](N2CC[C@H](Nc3ncnc4ccc(C(F)(F)F)cc34)C2=O)[C@H](NC(=O)COCCOCCNC(=O)COCCNC(=O)CCNC(=O)[C@H]2CC(=O)N(C)[C@@H]2c2cccnc2)C1` [Example 74, (2S,3S)-N-(1-(((1R,2S,5R)-5-(isopropyl(methyl)amino)-2-((S)-2-oxo-3-((6-(trifluoromethyl)quinazolin-4-yl)amino)pyrrolidin-1-yl)cyclohexyl)amino)-1,10,16-trioxo-3,6,12-trioxa-9,15-diazaoctadecan-18-yl)-1-methyl-5-oxo-2-(pyridin-3-yl)pyrrolidine-3-carboxamide] the “pKd of Antibody” value [1] was 9.091 and the EC50 [2] was 100000 nM.
With `CC(C)N(C)[C@@H]1CC[C@H](N2CC[C@H](Nc3ncnc4ccc(C(F)(F)F)cc34)C2=O)[C@H](NC(=O)CCOCCOCCNC(=O)COCCNC(=O)CCNC(=O)[C@H]2CC(=O)N(C)[C@@H]2c2cccnc2)C1` [Example 75, (2S,3S)-N-(19-(((1R,2S,5R)-5-(Isopropyl(methyl)amino)-2-((S)-2-oxo-3-((6-(trifluoromethyl)quinazolin-4-yl)amino)pyrrolidin-1-yl)cyclohexyl)amino)-3,9,19-trioxo-7,13, 16-trioxa-4, 10-diazanonadecyl)-1-methyl-5-oxo-2-(pyridin-3-yl)pyrrolidine-3-carboxamide] the “pKd of Antibody” value [1] was 9.103 and the EC50 [2] was 1 nM.
With `CC(C)N(C)[C@@H]1CC[C@H](N2CC[C@H](Nc3ncnc4ccc(C(F)(F)F)cc34)C2=O)[C@H](NC(=O)COCCNC(=O)CCNC(=O)COCCOCCNC(=O)[C@H]2CC(=O)N(C)[C@@H]2c2cccnc2)C1` [Example 79, (2S,3S)-N-(18-(((1R,2S,5R)-5-(Isopropyl(methyl)amino)-2-((S)-2-oxo-3-((6-(trifluoromethyl)quinazolin-4-yl)amino)pyrrolidin-1-yl)cyclohexyl)amino)-8,12,18-trioxo-3,6,16-trioxa-9,13-diazaoctadecyl)-1-methyl-5-oxo-2-(pyridin-3-yl)pyrrolidine-3-carboxamide] the “pKd of Antibody” value [1] was 9.126 and the EC50 [2] was 3.16 nM.
For `CN1C(=O)C[C@H](C(=O)NCCOCC(=O)NCCOCC(=O)NCCOCCC(=O)N[C@@H]2C[C@H](NC(C)(C)C)CC[C@@H]2N2CC[C@H](Nc3ncnc4ccc(C(F)(F)F)cc34)C2=O)[C@H]1c1cccnc1` [Example 103, (2S,3S)-N-(18-(((1R,2S,5R)-5-(tert-Butylamino)-2-((S)-2-oxo-3-((6-(trifluoromethyl)quinazolin-4-yl)amino)pyrrolidin-1-yl)cyclohexyl)amino)-5,11,18-trioxo-3,9,15-trioxa-6, 12-diazaoctadecyl)-1-methyl-5-oxo-2-(pyridin-3-yl)pyrrolidine-3-carboxamide], the “pKd of Antibody” value [1] was 9.0985 and the EC50 [2] was 100000 nM.
With `CC(C)N(C)[C@@H]1CC[C@H](N2CC[C@H](Nc3ncnc4ccc(C(F)(F)F)cc34)C2=O)[C@H](NC(=O)COCCNC(=O)CCOCCNC(=O)COCCNC(=O)[C@H]2CC(=O)N(C)[C@@H]2c2cccnc2)C1` [Example 104, (2S,3S)-N-(18-(((1R,2S,5R)-5-(Isopropyl(methyl)amino)-2-((S)-2-oxo-3-((6-(trifluoromethyl)quinazolin-4-yl)amino)pyrrolidin-1-yl)cyclohexyl)amino)-5,12,18-trioxo-3,9,16-trioxa-6,13-diazaoctadecyl)-1-methyl-5-oxo-2-(pyridin-3-yl)pyrrolidine-3-carboxamide] the “pKd of Antibody” value [1] was 9.051 and the EC50 [2] was 0.631 nM.
`CC(C)N(C)[C@@H]1CC[C@H](N2CC[C@H](Nc3ncnc4ccc(C(F)(F)F)cc34)C2=O)[C@H](NC(=O)COCCNC(=O)[C@H]2CC[C@@H](NC(=O)CCOCCNC(=O)[C@H]3CC(=O)N(C)[C@@H]3c3cccnc3)CC2)C1` [Example 109, (2S,3S)-N-(2-(3-(((1S,4R)-4-((2-(2-(((1R,2S,5R)-5-(Isopropyl(methyl)amino)-2-((S)-2-oxo-3-((6-(trifluoromethyl)quinazolin-4-yl)amino)pyrrolidin-1-yl)cyclohexyl)amino)-2-oxoethoxy)ethyl)carbamoyl)cyclohexyl)amino)-3-oxopropoxy)ethyl)-1-methyl-5-oxo-2-(pyridin-3-yl)pyrrolidine-3-carboxamide] was tested, and the “pKd of Antibody” value [1] was 8.951 and the EC50 [2] was 0.631 nM.
For `CC(C)N(C)[C@@H]1CC[C@H](N2CC[C@H](Nc3ncnc4ccc(C(F)(F)F)cc34)C2=O)[C@H](NC(=O)CCOCCNC(=O)[C@H]2CC[C@@H](NC(=O)CCOCCNC(=O)[C@H]3CC(=O)N(C)[C@@H]3c3cccnc3)CC2)C1` [Example 110, (2S,3S)-N-(2-(3-(((1S,4R)-4-((2-(3-(((1R,2S,5R)-5-(Isopropyl(methyl)amino)-2-((S)-2-oxo-3-((6-(trifluoromethyl)quinazolin-4-yl)amino)pyrrolidin-1-yl)cyclohexyl)amino)-3-oxopropoxy)ethyl)carbamoyl)cyclohexyl)amino)-3-oxopropoxy)ethyl)-1-methyl-5-oxo-2-(pyridin-3-yl)pyrrolidine-3-carboxamide], the “pKd of Antibody” value [1] was 8.9085 and the EC50 [2] was 0.0501 nM.
`CC(C)N(C)[C@@H]1CC[C@H](N2CC[C@H](Nc3ncnc4ccc(C(F)(F)F)cc34)C2=O)[C@H](NC(=O)[C@H]2CC[C@@H](NC(=O)CCO[C@H]3CC[C@H](OCCNC(=O)[C@H]4CC(=O)N(C)[C@@H]4c4cccnc4)CC3)CC2)C1` [Example 112, (2S,3S)-N-(2-(((1S,4S)-4-(3-(((1S,4S)-4-(((1R,2S,5R)-5-(Isopropyl(methyl)amino)-2-((S)-2-oxo-3-((6-(trifluoromethyl)quinazolin-4-yl)amino)pyrrolidin-1-yl)cyclohexyl)carbamoyl)cyclohexyl)amino)-3-oxopropoxy)cyclohexyl)oxy)ethyl)-1-methyl-5-oxo-2-(pyridin-3-yl)pyrrolidine-3-carboxamide] was tested, and the “pKd of Antibody” value [1] was 9.343 and the EC50 [2] was 0.794 nM.
For `CC(C)N(C)[C@@H]1CC[C@H](N2CC[C@H](Nc3ncnc4ccc(C(F)(F)F)cc34)C2=O)[C@H](NC(=O)[C@H]2CC[C@H](NC(=O)CCO[C@H]3CC[C@H](OCCNC(=O)[C@H]4CC(=O)N(C)[C@@H]4c4cccnc4)CC3)CC2)C1` [Example 113, (2S,3S)-N-(2-(((1R,4S)-4-(3-(((1R,4R)-4-(((1R,2S,5R)-5-(Isopropyl(methyl)amino)-2-((S)-2-oxo-3-((6-(trifluoromethyl)quinazolin-4-yl)amino)pyrrolidin-1-yl)cyclohexyl)carbamoyl)cyclohexyl)amino)-3-oxopropoxy)cyclohexyl)oxy)ethyl)-1-methyl-5-oxo-2-(pyridin-3-yl)pyrrolidine-3-carboxamide], the “pKd of Antibody” value [1] was 9.767 and the EC50 [2] was 3.16 nM.
For `CC(C)N(C)[C@@H]1CC[C@H](N2CC[C@H](Nc3ncnc4ccc(C(F)(F)F)cc34)C2=O)[C@H](NC(=O)[C@H]2C[C@@H](NC(=O)CCO[C@H]3CC[C@H](OCCNC(=O)[C@H]4CC(=O)N(C)[C@@H]4c4cccnc4)CC3)C2)C1` [Example 115, (2S,3S)-N-(2-(((1S,4S)-4-(3-(((1S,3S)-3-(((1R,2S,5R)-5-(Isopropyl(methyl)amino)-2-((S)-2-oxo-3-((6-(trifluoromethyl)quinazolin-4-yl)amino)pyrrolidin-1-yl)cyclohexyl)carbamoyl)cyclobutyl)amino)-3-oxopropoxy)cyclohexyl)oxy)ethyl)-1-methyl-5-oxo-2-(pyridin-3-yl)pyrrolidine-3-carboxamide], the “pKd of Antibody” value [1] was 9.363 and the EC50 [2] was 0.158 nM.
